From PubChem BioAssay AID328 (DTP/NCI, 2004)
Several values for one entry are separate records, joined by “and”; a condition that tells them apart may be missing. Equal values may be shown once. Inconclusive results and toxic doses are left out.

Test system: BDF1 mice, P388 leukemia ip, median survival T/C
Assay: NCI In Vivo Anticancer Drug Screen. Data for tumor model P388 Leukemia (intraperitoneal) in B6D2F1 (BDF1) mice
Conditions: endpoint: median survival time, higher = longer survival
Summary of the method: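 Compound-treated tumour-bearing mice were compared with vehicle-treated controls. Survival was recorded, and the value is the treated-group measurement divided by the control-group measurement (T/C).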

[1] = dose: 100.0 mg/kg/injection, schedule: Q04DX003 (ip), vehicle: Klucel (hydroxypropylcellulose) (HPC)
[2] = dose: 200.0 mg/kg/injection, schedule: Q04DX003 (ip), vehicle: Klucel (hydroxypropylcellulose) (HPC)
[3] = dose: 50.0 mg/kg/injection, schedule: Q01DX009 (ip), vehicle: saline with Tween-80
[4] = dose: 100.0 mg/kg/injection, schedule: Q01DX009 (ip), vehicle: saline with Tween-80
[5] = dose: 200.0 mg/kg/injection, schedule: Q01DX009 (ip), vehicle: saline with Tween-80
[6] = dose: 100.0 mg/kg/injection, schedule: Q04DX003 (ip), vehicle: saline
[7] = dose: 200.0 mg/kg/injection, schedule: Q04DX003 (ip), vehicle: saline
[8] = dose: 25.0 mg/kg/injection, schedule: Q01DX009 (ip), vehicle: saline

In the case of `O=[N+]([O-])c1ccc(C(F)(F)F)cc1`, the T/C (dose: 25.0 mg/kg/injection, schedule: Q01DX009 (ip), vehicle: other) is reported as 109 % of control, the T/C (dose: 50.0 mg/kg/injection, schedule: Q01DX009 (ip), vehicle: other) is reported as 104 % of control and the T/C (dose: 50.0 mg/kg/injection, schedule: Q04DX003 (ip), vehicle: other) is reported as 95 % of control. For the same compound, the T/C (dose: 100.0 mg/kg/injection, schedule: Q01DX009 (ip), vehicle: other) was 113 % of control, the T/C (dose: 100.0 mg/kg/injection, schedule: Q04DX003 (ip), vehicle: other) was 100 % of control and the T/C (dose: 200.0 mg/kg/injection, schedule: Q04DX003 (ip), vehicle: other) was 100 % of control.

In the case of `c1ccc(C2SCCSCCS2)cc1`, the T/C [1] is reported as 90 % of control, the T/C [2] is reported as 100 % of control and the T/C (dose: 400.0 mg/kg/injection, schedule: Q04DX003 (ip), vehicle: Klucel (hydroxypropylcellulose) (HPC)) is reported as 100 % of control.

With `CC(C)(COC(=O)c1cc(Br)ccc1Br)NC(=O)c1cc(Br)ccc1Br` the T/C [3] was 91 % of control, the T/C [4] was 97 % of control and the T/C [5] was 97 % of control.

With `C#CCN(C)Cc1ccccc1` the T/C (dose: 50.0 mg/kg/injection, schedule: Q01DX010 (ip), vehicle: saline) was 95 % of control, the T/C (dose: 100.0 mg/kg/injection, schedule: Q01DX010 (ip), vehicle: saline) was 100 % of control and the T/C (dose: 200.0 mg/kg/injection, schedule: Q01DX010 (ip), vehicle: saline) was 109 % of control.

In the case of `O=C1OC2CCC3C1C3C2Br` (configuration not stated), the T/C (dose: 2.32 mg/kg/injection, schedule: Q04DX003 (ip), vehicle: Klucel (hydroxypropylcellulose) (HPC)) is reported as 95 % of control, the T/C (dose: 4.65 mg/kg/injection, schedule: Q04DX003 (ip), vehicle: Klucel (hydroxypropylcellulose) (HPC)) is reported as 95 % of control and the T/C (dose: 9.3 mg/kg/injection, schedule: Q04DX003 (ip), vehicle: Klucel (hydroxypropylcellulose) (HPC)) is reported as 95 % of control. The T/C (dose: 13.0 mg/kg/injection, schedule: Q04DX003 (ip), vehicle: Klucel (hydroxypropylcellulose) (HPC)) was 115 % of control, the T/C (dose: 21.0 mg/kg/injection, schedule: Q04DX003 (ip), vehicle: Klucel (hydroxypropylcellulose) (HPC)) was 115 % of control and the T/C (dose: 30.0 mg/kg/injection, schedule: Q04DX003 (ip), vehicle: Klucel (hydroxypropylcellulose) (HPC)) was 120 % of control. The T/C (dose: 45.0 mg/kg/injection, schedule: Q04DX003 (ip), vehicle: Klucel (hydroxypropylcellulose) (HPC)) was 109 % of control and the T/C (dose: 70.0 mg/kg/injection, schedule: Q04DX003 (ip), vehicle: Klucel (hydroxypropylcellulose) (HPC)) was 95 % of control.

In the case of `CC(=O)c1cc(C)ccc1Sc1ccc(C)cc1`, the T/C [3] is reported as 104 % of control, the T/C [4] is reported as 101 % of control and the T/C [5] is reported as 95 % of control.

For `CC(c1ccccc1)c1ccc(O)cc1` (configuration not stated), the T/C [3] was 110 % of control, the T/C [4] was 110 % of control and the T/C [6] was 100 % of control. The T/C [5] was 110 % of control and the T/C [7] was 91 % of control.

In the case of `NNc1nc2c(N)ncnc2n1C1OC(CO)C(O)C1O` (configuration not stated), the T/C (dose: 50.0 mg/kg/injection, schedule: Q04DX003 (ip), vehicle: saline) is reported as 108 % of control, the T/C [6] is reported as 115 % of control and the T/C [7] is reported as 101 % of control. For the same compound, the T/C (dose: 400.0 mg/kg/injection, schedule: Q04DX003 (ip), vehicle: saline) was 116 % of control.

For `CN(C)C/C=C(/c1ccc(Br)cc1)c1cccnc1`, the T/C (dose: 12.5 mg/kg/injection, schedule: Q01DX009 (ip), vehicle: saline) was 89 % of control, the T/C [8] was 103 % of control and the T/C (dose: 50.0 mg/kg/injection, schedule: Q01DX009 (ip), vehicle: saline) was 97 % of control.

In the case of `CC(C(=O)c1ccc(Cl)cc1)C(O)(C(F)(F)F)C(F)(F)F` (configuration not stated), the T/C (dose: 100.0 mg/kg/injection, schedule: Q01DX001 (ip), vehicle: Klucel (hydroxypropylcellulose) (HPC)) is reported as 100 % of control, the T/C (dose: 200.0 mg/kg/injection, schedule: Q01DX001 (ip), vehicle: Klucel (hydroxypropylcellulose) (HPC)) is reported as 113 % of control and the T/C (dose: 400.0 mg/kg/injection, schedule: Q01DX001 (ip), vehicle: Klucel (hydroxypropylcellulose) (HPC)) is reported as 113 % of control.

In the case of `CCCCCCCCN1CCCNCC1`, the T/C [8] is reported as 100 % of control.

In the case of `Cc1cc(N(CCCl)CCCl)ccc1C=NC1CCCC1`, the T/C (dose: 100.0 mg/kg/injection, schedule: Q01DX009 (ip), vehicle: Klucel (hydroxypropylcellulose) (HPC)) is reported as 150 % of control, the T/C [1] is reported as 95 % of control and the T/C (dose: 133.0 mg/kg/injection, schedule: Q01DX009 (ip), vehicle: Klucel (hydroxypropylcellulose) (HPC)) is reported as 169 % of control. For the same compound, the T/C (dose: 200.0 mg/kg/injection, schedule: Q01DX009 (ip), vehicle: Klucel (hydroxypropylcellulose) (HPC)) was 188 % of control and 200 % of control and the T/C [2] was 108 % of control.
